# Data reported in patent publication US7094869B2, “Low molecular weight peptidomimetic growth hormone secretagogues” (Genentech, Inc., priority 1994, dated 2006).
# “Also recorded” adds a separate entry of the source. Non-standard residues stand in square brackets, D forms with d. Residues, ends and D or L forms follow the SMILES beside them.
# What was measured:
# rat pituitary cells [1] = biological target: T1, rat pituitary cells (Rattus norvegicus, UniProt O08725); assay: Rat “pit” cell challenges: combinations with GHRP-6/GHRH, desensitization, somatostatin suppression, GHRP antagonist; assay type: cell-based
# [2] = Combination GHRP and IGF-1 treatment of normal rats (7 days); assay type: in vivo, rat; conditions: 7 days, twice daily sc injections, normal adult female rats; GHRH 300, GHRPs 50, L-692,585 150 μg/dose
# Description: The rats were weighed on the day of surgery and randomized into 12 groups of 5/group using a grouping program.
# The GH secretagogues were given by sc. injection twice daily, each dose of 100 μl. […] Recombinant human IGF-1 (rhIGF-1) at 2.5 mg/ml in acetate buffer was loaded into osmotic minipumps (Alza, Palo Alto, model 2ML1, pump rate 10.16 μl/hr for 7 days, fill volume 2086 μl). Other pumps were filled with acetate buffer. […] The delivered dose of rhIGF-1 was therefore 610 μg/day.
# The next day the osmotic pumps were inserted into rats. […] All rats not receiving rhIGF-1 containing pumps were implanted with pumps delivering the acetate buffer excipient. […] The treatment groups were;
# The rats were sacrificed using carbon dioxide, bled from the heart and organs taken. Serum chemistries were measured by standard automated procedures.
# rat pituitary cells [3] = biological target: T1, rat pituitary cells; conditions: read-out: mean EC50; mean ± SE of independent EC50s
# In short: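 Primary rat anterior pituitary cells, cultured three days in DME low glucose/10% FBS, were washed, pre-incubated twice for 15 min, then challenged 15 min with test compounds (DMSO ≤0.1%) at 37 °C. Released GH was measured by two-site ELISA; EC50 came from 4-parameter fits, mean of three to four independent determinations.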
# [4] = oral; cited from earlier work
# growth hormone secretion = assay: GHRP induced growth hormone secretion, intravenous administration (Rat IV); assay type: in vivo; conditions: Table II; iv tail vein injection, anesthetized weanling female rats, serum GH 10 min after injection
# In short: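 Female Sprague Dawley rats (24-30 days, 50-90 g) under intraperitoneal pentobarbitone received graded intravenous tail-vein peptide doses in pH 5.0 sodium acetate/mannitol buffer 20 min post-anaesthesia. Blood by cardiac puncture 10 min after dosing; serum GH measured by rat GH ELISA in duplicate.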
# T1 sequence (O08725 whole entry): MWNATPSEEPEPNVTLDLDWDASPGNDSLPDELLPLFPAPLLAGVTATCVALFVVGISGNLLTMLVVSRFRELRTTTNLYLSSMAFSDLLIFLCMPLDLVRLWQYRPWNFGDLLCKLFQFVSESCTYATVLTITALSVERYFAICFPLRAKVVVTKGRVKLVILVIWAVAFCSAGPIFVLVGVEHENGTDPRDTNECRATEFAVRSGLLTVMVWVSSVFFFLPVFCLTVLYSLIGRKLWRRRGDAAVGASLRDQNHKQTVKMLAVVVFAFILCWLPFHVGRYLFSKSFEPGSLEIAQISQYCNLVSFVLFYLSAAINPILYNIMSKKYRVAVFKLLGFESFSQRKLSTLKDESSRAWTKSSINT
structure (smiles),measurement,setting,value
"C[C@H](NC(=O)[C@@H](Cc1c[nH]c2ccccc12)NC(=O)[C@@H](N)Cc1c[nH]cn1)C(=O)N[C@@H](Cc1c[nH]c2ccccc12)C(=O)N[C@H](Cc1ccccc1)C(=O)N[C@@H](CCCCN)C(N)=O [GHRP 6, His-D Trp-Ala-Trp-D Phe-Lys-NH2, reference compound] (H-H[dW]AW[dF]K-NH2)",GH response compared with control,rat pituitary cells [1]; 100 nM,significantly greater than control
same,increase in GH levels over control,rat pituitary cells [1]; 100 nM,3 fold
same,GH release in combination with GHRH,rat pituitary cells [1]; GHRP 100 nM plus GHRH 10 or 100 nM,show synergy with 10 nM GHRH; also recorded: synergistic; also recorded: showed synergy with GHRH
same,body weight gain (in words),[2],significant body weight gain
same,EC50,rat pituitary cells [3],6.2 ± 1.5 nM
same,absorbed orally,[4],~0.3%
same,Rat IV ED50,growth hormone secretion,1.0 µg
